Test results as given in US20240294533A1, “2-(HET)ARYL-SUBSTITUTED CONDENSED HETEROCYCLE DERIVATIVES AS PEST CONTROL AGENTS” (Bayer Aktiengesellschaft, priority 2021, published 2024).

Legend:
Type in all cases: in vivo
Plutella xylostella = Plutella xylostella spray test (PLUTMA), comparative; conditions: 168 h, 0.16 ppm, cabbage leaves, after 7 days
Excerpt: Plutella xylostella Spray Test (PLUTMA) Solvent: 14 parts by weight of dimethylformamide Emulsifier: alkylaryl polyglycol ether An appropriate active ingredient formulation is produced by dissolving 1 part by weight of active ingredient with the stated parts by weight of solvent and making the solution up to the desired concentration with water containing an emulsifier concentration of 1000 ppm. Further test concentrations are produced by diluting the formulation with emulsifier-containing water. If the addition of ammonium salts or/and penetrants is required, these are each added in a concentration of 1000 ppm to the formulation solution. Cabbage leaves (Brassica oleracea) are sprayed with an active ingredient formulation of the desired concentration and infected with larvae of the diamondback moth (Plutella xylostella). After 7 days, the kill in % is determined. 100% means that all caterpillars have been killed; 0% means that none of the caterpillars have been killed.

Ctenocephalides felis = Ctenocephalides felis oral test; conditions: 100 ppm, oral via cattle blood, after 2 days
Protocol: Ctenocephalides felis—Oral Test Solvent: dimethyl sulfoxide An appropriate active ingredient formulation is produced by mixing 10 mg of active ingredient with 0.5 ml of dimethyl sulfoxide. Dilution with citrated cattle blood gives the desired concentration. About 20 unfed adult cat fleas (Ctenocephalides felis) are placed into a chamber which is closed at the top and bottom with gauze. Onto the chamber is placed a metal cylinder with its bottom end closed with parafilm. The cylinder contains the blood/active ingredient formulation, which can be imbibed by the fleas through the parafilm membrane. The cylinder is heated to 37° C., while the flea chambers are kept at room temperature. After 2 days, the kill rate in % is determined relative to the untreated control. 100% means that all of the fleas have been killed; 0% means that none of the fleas have been killed.

Musca domestica = Musca domestica test; conditions: 100 ppm, adult houseflies, after 2 days
Protocol: Musca domestica Test Solvent: dimethyl sulfoxide An appropriate active ingredient formulation is produced by mixing 10 mg of active ingredient with 0.5 ml of dimethyl sulfoxide and diluting the concentrate with water to the desired concentration. Vessels containing a sponge treated with sugar solution and the desired concentration of active compound formulation are populated with 10 adult houseflies (Musca domestica). After 2 days, the kill rate in % is determined relative to the untreated control. 100% means that all of the flies have been killed; 0% means that none of the flies have been killed.

CCS(=O)(=O)c1ccc(-n2ncn(-c3ccc(Cl)cc3)c2=O)nc1-c1nc2cc(C(F)(F)C(F)(F)F)cnc2n1C [Example I-23]
efficacy at 0.16 ppm (Plutella xylostella): 90%
efficacy (kill rate) (Ctenocephalides felis): 100%
efficacy (kill rate) (Musca domestica): 100%
